Key:
[1] = test system: CLOCK and Bmal1 interaction; assay: Co-immunoprecipitation of Bmal1 with Myc-CLOCK; assay type: cell-based
U2OS cells = assay: Clock gene and protein expression in U2OS cells (immunoblot, RT-qPCR); assay type: cell-based; settings: 24 h
Experimental: Total protein (20-30 μg) was extracted using standard IP Lysis buffer (3% NaCl, 5% Tris-HCl, 10% Glycerol, 0.5% Triton X-10 in Sterile MilliQ water) and resolved on 10% SDS-Page gels followed by western blotting on Immun-Blot PVDF Membranes for Protein Blotting (Bio-rad). Antibodies used were diluted in 5% milk (Labscientific CN: M0841). Membranes were washed with TBS-T [10% TBS, 0.1% Tween™ 20 (Fisher BioReagents CN: BP377-500)]. Images were developed using Luminol solution 1:1 SuperSignal West Pico PLUS Stable Peroxide Solution (Thermo Scientific CN: 1863095) and SuperSignal West Pico PLUS Luminol Enhancer Solution (Thermo Scientific CN: 1863094) on chemiluminescence imager (GE Healthcare Bio-Sciences AB Amersham Imager 680).
Cells extracted with TRIzol™ Reagent (Ambion CN: 15596018) were collected. RNA extraction was performed with Chloroform (Fisher Chemical CN: C298-500) and Isopropanol (Fisher Chemical CN: A451SK-4) extraction followed by two purification steps with 75% Ethanol (Fisherbrand CN: HC-800-1GAL) and elution in Sterile MilliQ water.
The RNA concentration was measured using Nanodrop spectrophotometer (Thermo Fisher). Following RNA extraction, retro transcription was performed using RevertAid RT Reverse Transcription Kit (Thermo Fisher CN: K1691) and run on SimpliAmp Thermal Cycler (Thermo Fisher CN: A24811) according to the kit procedure. Quantitative PCR was performed using PowerUp™ SYBR™ Green Master Mix (Thermo Fisher CN: A25742) using a dilution of 5:2:1 master mix, RNA and H2Omq according to the protocol on ViiA 7 Real-Time PCR System (Applied Biosystems). Relative expression levels were determined using the comparative Ct method to normalize target genes to 36B4 internal controls.

C2C12 myoblast cell line = assay: MTT cell viability of C2C12 myoblasts; assay type: cell-based; settings: 0.2-5 μM for 48 hours
Experimental: Cells were seeded at 5×10^4 concentration in 100 μl culture medium into 96 wells flat bottom microplates and treated after 24 h with desired compounds and controls. After desired incubation periods, cells were treated with MTT labeling reagent 1× (MTT (3-[4,5-dimethylthiazol-2-yl]-2,5-diphenyltetrazolium bromide labeling reagent, 5 mg/ml in PBS, Roche Cell Proliferation Kit I (MTT)) and Solubilization buffer 1× (10% SDS in 0.01 M HCl and left overnight. Next morning absorbance was measured at 570 nm and 700 nm on microplate (ELISA) reader (TECAN infinite M200pro). The mean and standard deviation values were calculated for each well and graphed.
FIGS. 41A-41D. Effect of Chlorhexidine (CHX) and CM002 treatment on viability of mouse and human myoblasts. To determine potential toxic effects of CHX and CM002, we treated mouse C2C12 myoblast cell line with increasing concentrations from 0.2-5 μM for 48 hours and determined cell viability using the MTT assay (FIG. 41A). […] Considering the inflammatory milieus in dystrophic muscles, we further tested the tolerance of myoblasts to these molecules in the presence of inflammatory stimuli, a cytokine cocktail (CC) consisted of 10 ng/mL IL-1β, 100 ng/mL IFN-γ and 25 ng/mL of TNF-α (FIG. 41B). […] Lastly, human primary myoblasts derived from Duchene Muscular Dystrophy (DMD) patients were used to determine their tolerance to these compounds.

mdx mice = assay: Maximal lethal dose by daily intraperitoneal injection in mdx mice; assay type: in vivo
Experimental: FIGS. 48A-48C. Systemic delivery of CM002 by intraperitoneal injection improves muscle strength in dystrophic mdx mice. Based on the PK analysis, we determined the maximal lethal dose in mdx mice via daily intraperitoneal injections using escalating doses. Starting doses were tested at 10, 20 and 30 mg/Kg/day, for 3 consecutive days in male or female mdx mice (FIG. 48A).

[2] = test system: primary myoblasts derived from patients with Duchene Muscular Dystrophy; assay: Myogenic induction in human DMD primary myoblasts (immunoblot); assay type: cell-based; settings: 3 days of differentiation
Excerpt: FIGS. 40A-40B. Chlorhexidine and CM002 promote myogenic induction in human DMD primary myoblasts. Using primary myoblasts derived from patients with Duchene Muscular Dystrophy, we determined the effect of Chlorhexidine and CM002 on promoting myogenic induction.

[3] = In vivo pharmacokinetics after intravenous tail vein injection; design: species or system mouse; settings: 1 mg/kg intravenous
Experimental: FIGS. 47A-47C. In vivo PK study of CM002 by intravenous administration in C57/BL6 mice. We next performed pharmacokinetic analysis of CM002 in normal wild-type C57/BL6 mice to guide in vivo studies. Following intravenous delivery of CM002 via tail vein injection at 1 mg/kg of body weight in three mice of 12 weeks of age, we monitored its plasma concentrations at 6 hours (FIG. 47A) and 24 hours (FIG. 47B). […] Quantitative analysis of key pharmacokinetic parameters is shown in FIG. 47C, based on 1 mg/kg/day intravenous administration.

cells = assay: Cellular toxicity observed across cell assays; assay type: cell-based

[H]/N=C(\N/C(=N/[H])NCCCCCCNC(=N)NC(=N)Nc1ccc(Cl)cc1)Nc1ccc(Cl)cc1 [CHX, chlorhexidine]
Bmal1 interaction with CLOCK C267 mutant ([1]; Cysteine to Alanine mutant of CLOCK): failed to increase Bmal1 interaction with CLOCK C267 mutant | Bmal1 immunoprecipitated by Myc-CLOCK (CLOCK/Bmal1 interaction) ([1]; wild-type CLOCK, CHX 0.5 and 1 μM): sufficient to augment their interaction | CLOCK and Bmal1 transcripts (U2OS cells; RT-qPCR): markedly up-regulated | Dbp, Nr1d1, Nr1d2 and Cry2 transcripts (U2OS cells; RT-qPCR): stimulated | Bmal1 protein expression (U2OS cells; immunoblot): elevated Bmal1 expression at 0.2 and 0.5 μM | CLOCK protein levels (U2OS cells; immunoblot): sufficient to induce CLOCK protein levels | Rev-erbα (Nr1d1) and Period 2 (Per 2) protein (U2OS cells; immunoblot): induced by CHX in a largely dose-dependent manner | concentration at which number of viable cells drops (C2C12 myoblast cell line): 2500 nM

CCCCCC/C=N/C(=N)NC(=N)Nc1ccc(Cl)cc1 [CM002]
lethality at 20 mg/kg (mdx mice; IP injection): young adult mice at 14 weeks of age were succumbed to death, while older mice over 6 months of age survived | lethality at 30 mg/kg (mdx mice; IP injection): most mice injected at 30 mg/kg deceased | lethal dose (mdx mice; intraperitoneal, 3 consecutive days): over 20 mg/kg/day | tolerability at 10 mg/kg (mdx mice; male mice of 10-14 weeks, IP): tolerated 10 mg/kg well without any lethality | MyoD and Myogenin protein (myogenic factors) [2]: Robust inductions of MyoD and Myogenin protein | Bmal1 protein expression ([2]; 0.2 and 0.5 μM): significantly elevated protein expression of Bmal1 | plasma level at half-life [3]: ~100 ng/mL | time of tissue re-distribution [3]: ≤ 30 min | time to being largely cleared [3]: ≤ 24 h | maximal plasma concentration ([3]; C57/BL6 mice): ~1.47 mg/L | half-life ([3]; mouse, plasma, C57/BL6 mice): 6.76 ± 1.33 h | viability of cells at 1 μM (cells): maintained

Source: patent publication US20250100962A1 (CITY OF HOPE, priority 2023, published 2025)
